Source: US12473295B2, “Substituted straight chain spiro derivatives” (Janssen Pharmaceutica NV, priority 2019, dated 2025)
Where a name gives a salt, the structure may show the parent alone.

Tests used:
[1] = target: menin/MLL (terbium chelate-labeled menin, FITC-MBM1 peptide) (Homo sapiens (Human), UniProt O00255); experiment: Menin/MLL homogenous time-resolved fluorescence (HTRF) assay; assay type: binding; settings: HTRF-30 min incubation IC50, 30 min incubation;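 further: IC50 from percent inhibition of HTRF signal, normalized between wells without competitor and wells with a saturating competitor that displaces FITC-MBM1 from His-tagged menin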
menin/MLL (terbium chelate-labeled menin, FITC-MBM1 peptide), sequence (O00255 other isoform, or with tags, fused parts or gaps): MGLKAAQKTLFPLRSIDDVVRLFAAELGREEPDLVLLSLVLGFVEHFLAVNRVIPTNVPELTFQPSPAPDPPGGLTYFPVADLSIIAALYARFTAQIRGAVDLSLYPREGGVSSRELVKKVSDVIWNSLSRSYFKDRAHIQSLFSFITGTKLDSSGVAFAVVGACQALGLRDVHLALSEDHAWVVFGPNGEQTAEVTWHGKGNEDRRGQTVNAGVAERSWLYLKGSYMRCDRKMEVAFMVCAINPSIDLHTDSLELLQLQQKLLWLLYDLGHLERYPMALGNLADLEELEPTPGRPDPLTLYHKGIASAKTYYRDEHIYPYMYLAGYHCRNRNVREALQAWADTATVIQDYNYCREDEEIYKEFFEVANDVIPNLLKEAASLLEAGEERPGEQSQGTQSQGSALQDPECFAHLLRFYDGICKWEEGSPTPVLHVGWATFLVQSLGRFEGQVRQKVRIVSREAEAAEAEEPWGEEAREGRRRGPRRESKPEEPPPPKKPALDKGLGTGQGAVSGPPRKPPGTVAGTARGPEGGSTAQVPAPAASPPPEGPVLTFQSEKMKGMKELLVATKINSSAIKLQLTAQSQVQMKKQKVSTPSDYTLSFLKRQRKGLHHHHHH

MOLM14 cells = experiment: Proliferation assay (spheroid growth, 8 days), MOLM14; assay type: cell-based, human; settings: Homo sapiens, MOLM-14, […], MOLM14, 8 days; read-out: spheroid assay_OneTime MOLM14 IC50;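 further: spheroid size read as confluence by live-cell imaging, compounds added at a range of concentrations with 0.3% DMSO, DMSO-treated wells = 0%, highest reference dose = low control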
OCI-AML3 cells = experiment: Proliferation assay (spheroid growth, 8 days), OCI-AML3; assay type: cell-based, human; settings: Homo sapiens, OCI-AML-3, […], OCI-AML3, 8 days
Summary of the method: (§1)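 Cells were seeded at 200 (MOLM14, OCI-AML3) or 300 (KO-52) per well in ultra-low attachment round-bottom plates with compounds at several concentrations, 0.3% DMSO, and grown 8 days at 37° C. Spheroid confluence was imaged on day 8; IC50 came from a variable-slope fit normalized to DMSO and high-dose reference compound.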

KO-52 cells = experiment: Proliferation assay (spheroid growth, 8 days), KO-52 control cell line; assay type: cell-based, human; settings: Homo sapiens, […], read-out: spheroid assay_OneTime KO-52 IC50
Summary of the method: as §1

MEIS1 mRNA = MEIS1 mRNA expression assay (Quantigene Singleplex) in MOLM14 cells; assay type: cell-based, human; settings: Homo sapiens, MOLM-14, 48 h, 48 hours incubation;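 further: MEIS1 transcript levels read by probe hybridization and normalized to RPL28 mRNA, with IC50 fitted to fold changes across a rising compound concentration series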

Row | Compound | IC50 [1] | IC50 (MOLM14 cells) | IC50 (OCI-AML3 cells) | IC50 (KO-52 cells) | IC50 (MEIS1 mRNA)
1 | CCN(C(=O)c1cc(F)ccc1Oc1nncnc1N1CCC2(C1)CN([C@H](CCN(C)CCCOC)C(C)C)C2)C(C)C (single isomer, unassigned) [Compound 275, (*R)—N-ethyl-5-fluoro-N-isopropyl-2-((5-(2-(1-((3-methoxypropyl)(methyl)amino)-4-methylpentan-3-yl)-2,6-diazaspiro[3.4]octan-6-yl)-1,2,4-triazin-6-yl)oxy)benzamide] | 0.66 nM | 78 nM | 330 nM | > 15000 nM | 100 nM
2 | CCN(C(=O)c1cc(F)ccc1Oc1nncnc1N1CCC2(C1)CN([C@H](CCN(C)CCOC)C(C)C)C2)C(C)C (single isomer, unassigned) [Compound 276, (*R)—N-ethyl-5-fluoro-N-isopropyl-2-((5-(2-(1-((2-methoxyethyl)(methyl)amino)-4-methylpentan-3-yl)-2,6-diazaspiro[3.4]octan-6-yl)-1,2,4-triazin-6-yl)oxy)benzamide] | 0.5 nM | 240 nM | 1610 nM | > 15000 nM | 390 nM
3 | CCN(C(=O)c1cc(F)ccc1Oc1nncnc1N1CCC2(C1)CN([C@H](CCNCCC(N)=O)C(C)C)C2)C(C)C (single isomer, unassigned) [Compound 278, (*R)-2-((5-(2-(1-((3-amino-3-oxopropyl)amino)-4-methylpentan-3-yl)-2,6-diazaspiro[3.4]octan-6-yl)-1,2,4-triazin-6-yl)oxy)-N-ethyl-5-fluoro-N-isopropylbenzamide fumarate] | 0.068 nM | > 940 nM | 3210 nM | > 15000 nM | > 1000 nM
4 | CCN(C(=O)c1cc(F)ccc1Oc1nncnc1N1CCC2(C1)CN([C@H](CCN(C)CCC(N)=O)C(C)C)C2)C(C)C (single isomer, unassigned) [Compound 280, (*R)-2-((5-(2-(1-((3-amino-3-oxopropyl)(methyl)amino)-4-methylpentan-3-yl)-2,6-diazaspiro[3.4]octan-6-yl)-1,2,4-triazin-6-yl)oxy)-N-ethyl-5-fluoro-N-isopropylbenzamide fumarate] | 0.2 nM | 690 nM | 920 nM | > 15000 nM | 1070 nM
5 | CCN(C(=O)c1cc(F)ccc1Oc1nncnc1N1CCC2(C1)CN([C@H](C[C@@H](CN(C)C)OC)C(C)C)C2)C(C)C (single isomer, unassigned) [Compound 315, 2-((5-(2-((3*R,5*S)-6-(dimethylamino)-5-methoxy-2-methylhexan-3-yl)-2,6-diazaspiro[3.4]octan-6-yl)-1,2,4-triazin-6-yl)oxy)-N-ethyl-5-fluoro-N-isopropylbenzamide fumarate] | 0.51 nM | 290 nM | 1090 nM | > 15000 nM | ~330 nM
6 | CCN(C(=O)c1cc(F)ccc1Oc1nncnc1N1CCC2(C1)CN([C@H](C[C@@H](O)CN(C)C(C)C)C(C)C)C2)C(C)C (single isomer, unassigned) [Compound 323, N-ethyl-5-fluoro-2-((5-(2-((3*R,5*R)-5-hydroxy-6-(isopropyl(methyl)amino)-2-methylhexan-3-yl)-2,6-diazaspiro[3.4]octan-6-yl)-1,2,4-triazin-6-yl)oxy)-N-isopropylbenzamide fumarate] | 0.49 nM | 110 nM | 170 nM | 13400 nM | 62 nM
7 | CCN(C(=O)c1cc(F)ccc1Oc1nncnc1N1CCC2(C1)CN([C@H](C[C@H](O)CN(C)C(C)C)C(C)C)C2)C(C)C (single isomer, unassigned) [Compound 325, N-ethyl-5-fluoro-2-((5-(2-((3*R,5*S)-5-hydroxy-6-(isopropyl(methyl)amino)-2-methylhexan-3-yl)-2,6-diazaspiro[3.4]octan-6-yl)-1,2,4-triazin-6-yl)oxy)-N-isopropylbenzamide fumarate] | ~0.16 nM | 16 nM | 190 nM | > 15000 nM | 15 nM
8 | CCN(CC)C[C@H](O)C[C@H](C(C)C)N1CC2(CCN(c3ncnnc3Oc3ccc(F)cc3C(=O)N(CC)C(C)C)C2)C1 (single isomer, unassigned) [Compound 334, 2-((5-(2-((3*R,5*R)-6-(diethylamino)-5-hydroxy-2-methylhexan-3-yl)-2,6-diazaspiro[3.4]octan-6-yl)-1,2,4-triazin-6-yl)oxy)-N-ethyl-5-fluoro-N-isopropylbenzamide fumarate] | 0.079 nM | 12 nM | 130 nM | > 15000 nM | 11 nM
9 | CCN(CC)C[C@H](O)C[C@@H](C(C)C)N1CC2(CCN(c3ncnnc3Oc3ccc(F)cc3C(=O)N(CC)C(C)C)C2)C1 (single isomer, unassigned) [Compound 336, 2-((5-(2-((3*S,5*R)-6-(diethylamino)-5-hydroxy-2-methylhexan-3-yl)-2,6-diazaspiro[3.4]octan-6-yl)-1,2,4-triazin-6-yl)oxy)-N-ethyl-5-fluoro-N-isopropylbenzamide fumarate] | 0.21 nM | 70 nM | 870 nM | > 15000 nM | 61 nM
10 | CCN(C)C[C@@H](O)C[C@H](C(C)C)N1CC2(CCN(c3ncnnc3Oc3ccc(F)cc3C(=O)N(CC)C(C)C)C2)C1 (single isomer, unassigned) [Compound 342, N-ethyl-2-((5-(2-((3*S,5S)-6-(ethyl(methyl)amino)-5-hydroxy-2-methylhexan-3-yl)-2,6-diazaspiro[3.4]octan-6-yl)-1,2,4-triazin-6-yl)oxy)-5-fluoro-N-isopropylbenzamide fumarate] | 0.17 nM | 10 nM | 25 nM | 23 nM | 78 nM
11 | CCN(C(=O)c1cc(F)ccc1Oc1nncnc1N1CCC2(C1)CN([C@H](C[C@H](O)CN(C)CCOC)C(C)C)C2)C(C)C (single isomer, unassigned) [Compound 352, N-ethyl-5-fluoro-2-((5-(2-((3*R,5S)-5-hydroxy-6-((2-methoxyethyl)(methyl)amino)-2-methylhexan-3-yl)-2,6-diazaspiro[3.4]octan-6-yl)-1,2,4-triazin-6-yl)oxy)-N-isopropylbenzamide fumarate] | 0.077 nM | 18 nM | 150 nM | > 15000 nM | 130 nM
12 | CCN(C(=O)c1cc(F)ccc1Oc1nncnc1N1CCC2(C1)CN([C@H](C[C@@H](O)CN(C)CCOC)C(C)C)C2)C(C)C (single isomer, unassigned) [Compound 356, N-ethyl-5-fluoro-2-((5-(2-((3*R,5R)-5-hydroxy-6-((2-methoxyethyl)(methyl)amino)-2-methylhexan-3-yl)-2,6-diazaspiro[3.4]octan-6-yl)-1,2,4-triazin-6-yl)oxy)-N-isopropylbenzamide fumarate] | 0.053 nM | 7 nM | 46 nM | > 15000 nM | ~8.2 nM
13 | CC(C)[C@@H](C[C@@H](O)CN(C)C)N1CC2(CCN(c3ncnnc3Oc3ccc(F)cc3C(=O)N(C(C)C)C(C)C)C2)C1 (single isomer, unassigned) [Compound 365, 2-((5-(2-((3*R,5*R)-6-(dimethylamino)-5-hydroxy-2-methylhexan-3-yl)-2,6-diazaspiro[3.4]octan-6-yl)-1,2,4-triazin-6-yl)oxy)-5-fluoro-N,N-diisopropylbenzamide fumarate] | 0.097 nM | 11 nM | 37 nM | > 15000 nM | 10 nM
